Experimental data from the NIST ThermoML archive (doi:10.1021/je8008649).

Assay: mn = molality of the nth substance listed, in mol/kg
Conditions: 101 kPa, Liquid

N.N.O=S(=O)(O)O [ammonium sulfate] + O
m1 = 4.655
Conditions | mass density [kg/m3] | viscosity [mPa·s]
293.15 K | 1217.66 | –
298.15 K | 1215.79 | 2.114
303.15 K | 1213.89 | 1.944
308.15 K | 1211.94 | 1.785
313.15 K | 1209.97 | –

NO.O=S(=O)(O)O [hydroxylammonium hydrogen sulfate] + O
Conditions | mass density, 283.15 K [kg/m3] | mass density, 288.15 K [kg/m3] | mass density, 293.15 K [kg/m3] | mass density, 298.15 K [kg/m3] | mass density, 303.15 K [kg/m3] | mass density, 308.15 K [kg/m3] | mass density, 313.15 K [kg/m3] | viscosity, 298.15 K [mPa·s] | viscosity, 303.15 K [mPa·s] | viscosity, 308.15 K [mPa·s]
m1 = 0.0075 | 1000.57 | 999.95 | 999.03 | 997.89 | 996.46 | 994.84 | 993 | – | – | –
m1 = 0.0204 | – | – | – | – | – | – | – | 0.897 | 0.806 | 0.727
m1 = 0.038 | 1003.84 | 1003.18 | 1002.23 | 1001.03 | 999.59 | 997.95 | 996.09 | – | – | –
m1 = 0.0473 | – | – | – | – | – | – | – | 0.909 | 0.814 | 0.736
m1 = 0.0702 | 1007.27 | 1006.56 | 1005.58 | 1004.34 | 1002.88 | 1001.17 | 999.12 | 0.914 | 0.821 | 0.741
m1 = 0.2199 | 1022.47 | 1021.57 | 1020.43 | 1019.05 | 1017.48 | 1015.7 | 1013.04 | – | – | –
m1 = 0.2315 | – | – | – | – | – | – | – | 0.968 | 0.869 | 0.787
m1 = 0.3709 | 1036.87 | 1035.81 | 1034.52 | 1033.05 | 1031.38 | 1029.51 | 1027.24 | 1.019 | 0.912 | 0.823
m1 = 0.4314 | 1042.64 | 1041.22 | 1039.97 | 1038.36 | 1036.73 | 1034.77 | 1032.85 | 1.035 | 0.927 | 0.838
m1 = 0.5334 | 1051.59 | 1050.39 | 1048.98 | 1047.39 | 1045.61 | 1043.69 | 1041.6 | 1.069 | 0.961 | 0.867
m1 = 0.8069 | 1075.32 | 1073.9 | 1071.96 | 1070.2 | 1068.3 | 1066.3 | 1064.15 | 1.167 | 1.053 | 0.95
m1 = 0.9684 | 1088.31 | 1086.8 | 1085.12 | 1083.29 | 1081.32 | 1079.23 | 1076.98 | – | – | –
m1 = 1.044 | – | – | – | – | – | – | – | 1.256 | 1.128 | 1.02
m1 = 1.165 | 1103.23 | 1101.58 | 1099.81 | 1097.89 | 1095.85 | 1093.7 | 1091.42 | – | – | –
m1 = 1.324 | – | – | – | – | – | – | – | 1.369 | 1.237 | 1.112
m1 = 1.478 | 1126.68 | 1124.91 | 1123 | 1120.96 | 1118.82 | 1116.5 | 1113.63 | – | – | –
m1 = 1.589 | – | – | – | – | – | – | – | 1.483 | 1.333 | 1.201
m1 = 1.851 | 1151.94 | 1149.99 | 1147.92 | 1145.49 | 1142.34 | 1141.16 | 1138.36 | – | – | –
m1 = 1.915 | – | – | – | – | – | – | – | 1.631 | 1.463 | 1.319
m1 = 2.088 | – | – | – | – | – | – | – | 1.732 | 1.542 | 1.386
m1 = 2.461 | 1188.98 | 1186.87 | 1184.69 | 1182.41 | 1180.07 | 1177.64 | 1175.14 | – | – | –
m1 = 2.847 | – | – | – | – | – | – | – | 2.123 | 1.887 | 1.702
m1 = 2.998 | 1218.05 | 1215.84 | 1213.55 | 1211.21 | 1208.79 | 1206.32 | 1203.99 | – | – | –
